Experimental data reported in US6562378B1, “Nutritional supplement for adolescents” (TSAR Health Private Ltd., priority 2002, dated 2003).
Marks after values point to notes of the source that are not given here.

Columns and labels:
Assay type in all cases: in vivo, human
[1] = tested on: blood lymphocytes; experiment: Zinc dose response: lymphocyte response to PHA (thymidine uptake, stimulation index); settings: 13-18 year old adolescents, median (standard deviation)
Protocol: (§1) The basic concept underlying the assessment of the most optimum nutrient amounts for a given age group uses the principle of “dose-response curves”. At least four groups of individuals were provided with various amounts of a given nutrient and their immune responses were measured using established and accepted techniques. The amount of a nutrient that gave the best response was considered the optimum amount. Dose response curves were determined for all vitamins and trace elements considered essential for human health, particularly immunity.
Data for the dose response curve for zinc in a group of 13-18 year old adolescents is shown in FIGS. 1 and 2, with the total amount of zinc taken is shown for each group. To determine the magnitude of immune response, an aliquot of blood was withdrawn from each subject in the study, blood lymphocytes were separated, washed and mixed with the mitogen phytohemagglutinin (PHA) in previously determined optimum amount. The optimum amount of PHA used in the experiments was predetermined by a set of dose response curves using lymphocytes of a healthy donor and four different concentrations of PHA. After culture in a sterile environment for 72 hours, the cells were washed and mixed with radioactive thymidine. The same steps were undertaken in a control sample in which only the culture medium was used, not PHA. The cells were washed and radioactivity determined.
(§2) The ratio of radioactivity in the test samples divided by radioactivity in control samples gave the “stimulation response” shown in FIGS. 1 and 2.

[2] = tested on: Interleukin-2; experiment: Zinc dose response: interleukin-2; settings: adolescents, median (standard deviation)
Protocol: as §1, §2

[3] = tested on: Antibody response; experiment: Zinc dose response: antibody response; settings: adolescents
Protocol: as §1, §2

[4] = tested on: Thymulin activity; experiment: Zinc dose response: thymulin activity; settings: adolescents
Protocol: as §1, §2

[5] = supplemental zinc 11 mg/day plus 7 mg in diet
[6] = supplemental zinc 28 mg/day plus 7 mg in diet
[7] = supplemental zinc 55 mg/day plus 7 mg in diet

## [Zn] [zinc]
[1]; [5]
  Lymphocyte Response to PHA (stimulation index): 77 (8)
[1]; [6]
  Lymphocyte Response to PHA (stimulation index): 51 (6)
[1]; [7]
  Lymphocyte Response to PHA (stimulation index): 40 (7)
[2]; [5]
  Interleukin-2: 17 (1.4) units/ml
[2]; [6]
  Interleukin-2: 11 (1.5) units/ml
[2]; [7]
  Interleukin-2: 9 (1.1) units/ml
[3]; [5]
  Antibody response (median reciprocal titre): 254
[3]; [6]
  Antibody response (median reciprocal titre): 136
[3]; [7]
  Antibody response (median reciprocal titre): 97
[4]; [5]
  Thymulin activity (median reciprocal titer): 114*
[4]; [6]
  Thymulin activity (median reciprocal titer): 123*
[4]; [7]
  Thymulin activity (median reciprocal titer): 106*
